Data reported in paper PMC4552636, “Pharmacokinetics, Tissue Distribution, and Anti-Lipogenic/Adipogenic Effects of Allyl-Isothiocyanate Metabolites” (PLoS ONE, 2015).

Key:
[1] = rat, in vivo, po
Description: (§5) Male Sprague-Dawley rats with an average weight of approximately 250 g were purchased from Orient Bio Inc. (Seoul, South Korea) and acclimatized to the laboratory conditions (12:12 h light-dark cycle, temperature of 24°C, and humidity of 55%) for 1 week. Animals were provided the American Institute of Nutrition-93 (AIN-93) diet and water ad libitum during acclimation. On the dosing day, rats were fasted for 6 h and then administered AITC (25 mg/kg of body weight) as a suspension (1 mL) in polyethylene glycol using an oral zonde needle. After a single-dose oral administration of AITC, rats were sacrificed under anesthesia (80 mg/kg ketamine + 8 mg/kg xylazine) at different time points after dosing. Blood samples were collected from the abdominal aorta in heparinized syringes. Samples were immediately centrifuged at 3,000 × g for 10 min and the resulting plasma samples were kept frozen at -80°C until analysis. The liver, heart, spleen, kidney, and lung were rapidly collected from each animal at different time points, individually wrapped in aluminum foil, snap-frozen in liquid nitrogen, and stored frozen at -80°C until use.
(§6) Dissected tissue was thawed, rinsed with ice-cold saline, blotted dry, and weighed. Each tissue sample (100 mg) was homogenized in 100 μL phosphate-buffered saline (PBS) using homogenizer (MP Fastprep instrument, MP Biomedical, Solon, OH, USA). The homogenates were transferred into clean tubes and mixed with 700 μL of methanol by vortexing for 5 min. Homogenates were centrifuged at 15,700 × g for 15 min at 4°C, and the supernatants were collected and evaporated to dryness at room temperature under a stream of nitrogen gas. The residue was diluted with 100 μL 70% methanol.
(§7) HPLC analysis was performed using a Jasco HPLC system equipped with a Jasco UV-2089 plus quaternary gradient pump, a Jasco MD-2010 plus multiple-wave-length detector, and Borwin chromatography software, version 1.5 (Jasco Inc., Easton, MD, USA). Separation was achieved using an XTerra RP18 column (4.6 × 250mm, 5 μM, Waters, Milford, MA, USA). […]

[2] = Plasma pharmacokinetics of AITC metabolites after oral administration of AITC (HPLC); format: in vivo; conditions: male, Sprague-Dawley, rat plasma, metabolite after oral AITC 25 mg/kg, n = 5; for Cmax: read-out: Cmax (maximum plasma concentration); for half-life: read-out: T1/2 (elimination half-life) (converted); for AUC(0-t): unit printed in text b47 only, read-out: AUC (0-8h)
Description: Methanol (700 μL) was added to 300 μL of serum and the mixture was mixed by vortexing for 5 min. […] The internal standards (synthesized metabolites) were added to the plasma samples for validation.
(§1) Non-compartmental (mode-independent) nutrikinetic parameters were derived using PK Solutions software version 2.0 (Summit Research Services, Montrose, CO, USA). The maximum plasma concentration (Cmax), time to maximum plasma concentration (Tmax), and the elimination half-life (t1/2) were estimated from the plasma concentration-time curve. The area under the curve (AUC) for the plasma concentration over time was calculated using the trapezoidal rule.
A validated analytical method was employed to study the pharmacokinetic profiles of AITC metabolites after oral administration of 25 mg/kg AITC dose to rats. The mean plasma concentration-time curves of the AITC metabolites and the corresponding pharmacokinetic parameters are shown in Fig 2B and 2C . The pharmacokinetic analysis was performed with PK solution 2.0 software, using a non-compartmental model for data analysis. After oral administration of AITC, GSH-AITC and NAC-AITC were detected in the plasma. The Tmax values for GSH-AITC and NAC-AITC were similar at 0.5h. […] The areas under the curve of the concentration-time profile (AUC0-8h) of GSH-AITC and NAC-AITC were 1.3 and 12.33 μg·h/mL, respectively.

[3] = Urine concentration and pharmacokinetics of AITC metabolites after oral AITC (HPLC); format: in vivo; conditions: rat urine; for Detection in urine samples: HPLC
Description: as §1
In addition to our evaluations of plasma levels, we also determined the concentration of AITC metabolites in urine using HPLC. […] NAC-AITC was mostly excreted within 8 h (Fig 3C).

[4] = system: 3T3-L1 preadipocytes; assay: MDI-induced adipocyte differentiation of 3T3-L1 preadipocytes, Oil Red O staining; format: cell-based; conditions: treated days 0 to 2, stained after 8 days
Description: (§2) 3T3-L1 pre-adipocyte cells were purchased from the ATCC (Manassas, VA, USA). Cells were maintained in DMEM supplemented with 10% calf serum (CS), 100 U/mL penicillin and 100 μg/mL streptomycin at 37°C in a 5% CO2 incubator. The cells were seeded onto a 6-well plate at a density of 4 × 10^5 cells per well, and cell differentiation was induced. In brief, beginning at 2 days post-confluence (day 0), cells were incubated for 2 days in DMEM containing 0.5 mM 3-isobutyl-1-methylxanthine (IBMX), 1 μM dexamethasone, 1 μg/mL of insulin, and 10% fetal bovine serum (FBS). After induction, the medium was replaced with DMEM containing 10% FBS and 1 μg/mL of insulin, and the cells were incubated for 2 more days, after which the cells were maintained in DMEM containing 10% FBS until they reached maturity. From days 0 to 2, the cells were exposed to the AITC metabolites.
(§3) Oil Red O staining was performed on day 8. Prior to quantification, the cells were fixed in 10% neutral formalin for 1 h at room temperature, washed with PBS, and stained for 1 h with 0.5% Oil Red O in 60% isopropanol. After staining, the cells were washed with distilled water and observed under a fluorescence microscope. […] The optical density was measured at a wavelength of 490 nm using microplate reader (Tecan Infinite 200 PRO, Männedorf, Switzerland).

[5] = system: PPAR-γ, C/EBPα, and FAS; assay: Western blotting of adipogenesis proteins in 3T3-L1 cells; format: cell-based
Description: as §2
(§4) 3T3-L1 adipocytes were scraped into a lysis buffer containing 40 mM HEPES (pH 7.4), 120 mM NaCl, 1 mM EDTA, 50 mM NaF, 1.5 mM Na3VO4, 10 mM β–glycerophosphate, and 1% Triton X-100, supplemented with EDTA-free phosphatase and a protease inhibitor cocktail (#78441; Thermo Scientific, Waltham, MA, USA). Next, the cells were lysed by sonication twice for 15 sec on ice using a sonicator (Misonix, Farmingdale, NY, USA). […]

[6] = system: mTORC1; assay: mTORC1 activity (S6K1 and 4EBP1 phosphorylation) during 3T3-L1 adipocyte differentiation, western blot; format: cell-based
Description: as §2, §4

[7] = system: Hepa 1–6 cells; assay: Oleic acid-induced lipid accumulation in hepatocytes, Oil Red O; format: cell-based, mouse; conditions: hepatocytes (Hepa 1–6), 100 μM oleic acid, 24h
Description: HepG2 (human hepatoma cell line) and Hepa 1–6 (mouse hepatoma cell line) cells were obtained from ATCC (Manassas, VA, USA) and grown in high glucose DMEM supplemented with 10% FBS, 100 U/mL penicillin, and 100 μg/mL streptomycin. For examination of lipid accumulation in hepatocytes, the cells were treated with AITC metabolites in presence of 100 μM oleic acid for 24h.
as §3
Fig 6 Inhibitory effects of GSH-AITC and NAC-AITC on oleic acid-induced lipid accumulation. […] The intracellular triglyceride levels were indexed by quantifying the Oil Red O extracted from the cells by spectroscopy performed at an […] of 490 nm (B). The SCD1, FAS, and AMPK levels in cell lysates were detected by western blot analysis. To compare and quantify levels of proteins, the density of each band was measured using ImageJ software with β–actin as an internal reference (C). […]

[8] = set-up: method as in PMID 3961819; conditions: cellular medium; cited from earlier work
[9] = Tissue distribution of AITC metabolites after oral AITC (HPLC); conditions: rat liver, kidney, spleen, heart, lung; 0.5-8 h after oral AITC
Description: as §5, §6, §7

[10] = male, Sprague-Dawley, 25 mg/kg, n = 5

Tmax [2] [h] | Cmax [2] [ng/mL] | half-life [2] [h] | AUC(0-t) [2] [ng·h/mL] | Detection in urine samples [3] | Cmax [3, 10] [ng/mL] | Tmax [3, 10] [h] | AUC(0-t) ([3]; male, Sprague-Dawley, 25 mg/kg, n = 5, read-out: AUC (0-8h) in urine) [ng·h/mL] | half-life ([3]; male, Sprague-Dawley, 25 mg/kg, n = 5, read-out: T1/2 in urine (converted)) [h] | Time within which mostly excreted in urine [3] [h] | SMILES | Detection of parent molecule in plasma and tissues [1] | Differentiation of 3T3-L1 preadipocytes (Oil Red O) [4] | Levels of PPAR-γ, C/EBPα, and FAS [5] | S6K1 phosphorylation on Thr389 [6] | Oleic acid-induced lipid accumulation [7] | Fraction converted to free AITC [8] | Tissue deposition (by tissue weight) [9]
 |  |  |  |  |  |  |  |  |  | C=CCN=C=S [AITC, Allyl-isothiocyanate] | not detected |  |  |  |  |  | 
0.5 | 1470 | 0.92 | 1300 | not detected |  |  |  |  |  | C=CCNC(=S)SC[C@H](NC(=O)CC[C@H](N)C(=O)O)C(=O)NCC(=O)O [GSH-AITC, S-(N-allylthiocarbamoyl)-L-glutathione] |  | inhibited differentiation of preadipocytes | reduced | reduced | suppressed | 9–15% | observed in the liver, followed by the kidney, spleen, heart, and lung
0.5 | 14000 | 2.65 | 12300 | successfully quantified | 2260 | 2.66 | 8110 | 1.44 | ≤ 8 | C=CCNC(=S)SC[C@H](NC(C)=O)C(=O)O [NAC-AITC, N-acetyl-S-(N-allylthiocarbamoyl)- l-cysteine] |  | inhibited differentiation of preadipocytes | reduced | reduced | suppressed |  | observed in the kidney
